{"source": "patent US8053197B2", "about": "“Methods for detecting and treating autoimmune disorders” (Oregon Health & Science University, priority 2004, dated 2011)", "type_in_all_cases": "in vivo, C57BL/6 mice", "key": {"[1]": {"system": "CD4+CD25− responder cells", "assay": "Suppressive activity of CD4+CD25+ T cells from treated mice on CD4+CD25− responder cells (I50)", "description": "FIG. 7 illustrates the suppressive activity of CD4+CD25+ T cells recovered from placebo, E2-treated and pregnant mice was measured by their ability to suppress the growth of CD4+CD25−responder cells. Varying numbers of sorted CD4+CD25+ Treg cells from placebo-treated, E2-treated, and pregnant mice were co-cultured in triplicate for 3 days without (0:1 ratio) or with a constant number (5×10^4) of CD4+CD25−responder cells and APC (10^5) from naïve donors, and 0.5 μg/ml anti-CD3 mAb. Responder cells were also cultured alone (1:0 ratio). Proliferation was monitored by uptake of [^3H]-thymidine (1 μCi/well) for the last 12 h of culture. Data are representative of three independent experiments. *I50 values (% CD4+CD25+ cells that could inhibit the proliferation of anti-CD3-activated CD4+CD25−responder cells by 50%) represent the average of two or more independent experiments.\nFemale C57BL/6 mice were pretreated with 17β-estradiol (E2) or placebo for 7 days prior to challenge with MOG-35-55 peptide/CFA/PM to induce EAE. At the peak of EAE in the placebo group (day 15 after induction), cells were harvested from both the placebo-treated mice (score=4.5-5) and E2-treated mice (score=0). Cell mixtures were combined within each treatment group. […]"}, "Treg compartment": {"system": "Treg compartment", "assay": "Treg compartment (CD25, Foxp3 mRNA, FoxP3 protein) in naïve mice treated with E2 for 14 days", "description": "Quadrant statistics noted are percent of live gate.\nFIG. 5 is a graph illustrating real-time PCR analysis of Foxp3 mRNA in CD4+ cells from FIG. 4. Data are presented as Foxp3 relative to housekeeping gene L32. Error bars are standard deviation of triplicate samples.\nCells were pooled from 8-10 mice before sorting.\n(§1) For E2 therapy, a 3 mm pellet containing 2.5 mg or 15 mg (as indicated) 17β-estradiol (Innovative Research of America, Sarasota, Fla.) was implanted s.c. (dorsally) 7 days prior to immunization (EAE) or 14 days prior to analysis of naïve mice. These pellets are designed to release their contents at a constant rate over 60 days. Control animals were implanted with pellets containing saline. Serum levels of E2 were monitored by RIA.\nSingle-cell suspensions were prepared from spleens and RBCs lysed. Non-immunized mice receiving E2 pellets were sacrificed 14 days after implantation, while immunized mice were sacrificed at the peak of EAE disease severity, approximately 17 days after induction. […]\nFor real-time RT-PCR analysis, total RNA was prepared using the Total RNeasy kit (Qiagen, Germantown, Md.) and cDNA was prepared using random hexamer primers (Invitrogen, Grand Island, N.Y.). Foxp3 message expression was quantified using the ABI 7000 Real-Time PCR System (Applied Biosystems, Foster City, Calif.). Amplification was performed in a total volume of 25 μl for 40 cycles and products were detected using SYBR Green I dye (Molecular Probes, Eugene, Oreg.). Samples were run in triplicate and relative expression level was determined by normalization to L32 with results presented as relative expression (RE) units. […] For analysis of FoxP3 protein, cells were washed in PBS then lysed and sonicated in lysis buffer {25 mM Tris pH 8.5, 2% lithium dodecyl sulfate, 1 mM EDTA, 10 mM sodium fluoride, 1 mM sodium orthovanadate, and 1× Complete protease inhibitors (Roche Diagnostics, Mannheim, Germany)} and quantified by BCA (Pierce, Rockford, Ill.). […] FoxP3 was detected with rabbit-anti-FoxP3 antiserum and standard chemiluminescence. […]"}, "EAE": {"system": "EAE", "assay": "EAE induced with MOG-35-55 peptide/CFA/pertussis toxin, clinical score", "excerpt": "Female C57BL/6 mice were pretreated with 17β-estradiol (E2) or placebo for 7 days prior to challenge with MOG-35-55 peptide/CFA/PM to induce EAE. At the peak of EAE in the placebo group (day 15 after induction), cells were harvested from both the placebo-treated mice (score=4.5-5) and E2-treated mice (score=0). Cell mixtures were combined within each treatment group. Five×10^4 CD4+CD25− responder cells in combination with 5×10^4 APC and the indicated ratios of CD4+CD25+ suppressor cells were stimulated in triplicate wells with anti-CD3 mAb for 3 days, with addition of [^3H]-thymidine for the last 12 h of culture. Representative data from two independent experiments are shown.\nas §1\nBriefly, mice were immunized s.c. in the flanks with 200 μg MOG-35-55 peptide in CFA (Difco Laboratories, Detroit, Mich.). Mice were also given pertussis toxin i.p on days 0 (75 ng) and 2 (200 ng)."}}, "data": [{"smiles": "C[C@]12CC[C@@H]3c4ccc(O)cc4CC[C@H]3[C@@H]1CC[C@@H]2O", "note": "[E2, 17β-estradiol]", "values": [{"measurement": "I50 of Treg suppressive activity", "setting": "[1]; E2-protected mice challenged for EAE, day 15, control mice with EAE 30%", "result": 2.5, "unit": "%"}, {"measurement": "average I50 value for CD4+CD25+ Treg cells", "setting": "[1]; Treg from E2-treated mice without EAE, naïve mice 22.4±[…], n=3 experiments", "result": "14.7±0.3", "unit": "%"}, {"measurement": "FoxP3 protein", "setting": "Treg compartment", "result": "increase"}, {"measurement": "Foxp3 mRNA in CD4+ cells", "setting": "Treg compartment", "result": "increase"}, {"measurement": "increase in the fraction of CD25+ cells among all CD4+ cells versus untreated mice", "setting": "Treg compartment", "result": 43, "unit": "%"}, {"measurement": "EAE score", "setting": "EAE; E2 pretreatment 7 days before challenge, day 15 after induction (placebo 4.5-5)", "result": 0}, {"measurement": "protection from EAE", "setting": "EAE; wild-type C57BL/6 mice, therapeutic doses of E2", "result": "protected from EAE"}]}]}
